In one experiment the test system is Pb-Luc sporozoites. Nature of the experiment: Therapeutic assay, 4-day Peters test against Pb-Luc sporozoites. In kind it is in vivo, mice. The note with it: 4 doses of 15 mg/kg at 6, 18, 30, 42 hours post infection. How it is done:
(§1) TL5-135 was dissolved or resuspended in a suspending vehicle consisting of 30% DMSO, 1% methylcellulose, 0.5% TWEEN-80, and 68.5% ultrapure water. GNF179 was resuspended in 30% DMSO, 30% PEG400, 5% TWEEN-80, 35% saline, and administered intravenously.
(§2) For prophylaxis assays, a single dose of […] was administrated 6 hours before infection. For therapeutic assays, in a 4-day's Peters test, 4 doses (each 15 mg/kg) were administrated 6, 18, 30, and 42 hours post infection.
(§3) The antimalarial activity was measured as a percent reduction in parasitemia from day one until day twelve post-infection.
However, the mice treated with TL5-135 as a therapeutic had about 2.4% parasitemia after 12 days post-infection (all negative control mice died between days 11-13). The parasitemia on day 21 (21 days post-infection) for the group of mice was 35%.
(§4) Groups of 5 mice were infected with 100,000 Pb-Luc sporozoites by IV injection. Prophylactic (single dose of 50 mg/kg through IV injection, 6 hour before infection) and therapeutic (4-day Peters test, 4 doses of 15 mg/kg each time were administrated post-infection at 6, 18, 30, and 42 hours post infection (hpi) and the activity of the compounds was evaluated. See FIG. 8A. The parasitemia was estimated after flow cytometric enumeration of rodent malaria parasite Pb-Luc-infected red blood cells (RBS) stained with SYBR Green I, from day 3 until 20.
(§5) TL5-135 and GNF179 antimalarial compounds were tested against Pb-Luc sporozoites. Prophylactic activity (single dose of 15 mg/kg through an IV injection, 6 hours before infection) and therapeutic activity (4-day Peters test, 4 doses of 15 mg/kg each time was administrated at 6, 18, 30, and 42 hpi of the TL5-135 antimalarial compound was evaluated. As before, groups of five mice were infected with 100,000 Pb-Luc sporozoites by IV injection. The parasitemia was estimated after flow cytometric enumeration of rodent malaria parasite Pb-Luc-infected red blood cells (RBS) stained with SYBR Green I, from day 3 until day 20. See FIG. 8B.
As for `CC1(C)c2nc(-c3ccc(F)cc3)c(Nc3ccc(Cl)cc3)n2CCN1C(=O)CN` [GNF179, reference compound], the “Condition of mice after therapeutic treatment” value is “healthy and without parasites”.

A further experiment relates to P. berghei luc sporozoites (Pb-Luc). Nature of the experiment: Prophylaxis assay, single IV dose 6 hours before Pb-Luc sporozoite infection. In kind it is in vivo, mice. To be noted: single dose 15 mg/kg 6 hours before infection; after 22 days. How it is done:
as §1, §2, §3
Infection was initiated using 100,000 P. berghei luc sporozoites (Pb-Luc). The drugs were administered IV at 50 mg/kg, single dose 6 hours prior. I: infected, UI: uninfected.
as §4, §5
On to `CC1(C)c2nc(-c3ccc(F)cc3)c(Nc3ccc(Cl)cc3)n2CCN1C(=O)CN` [GNF179, reference compound], for which the “Condition of mice after prophylactic treatment” value was “still healthy and alive”.

Another experiment relates to P. falciparum Dd2. Nature of the experiment: Rate of killing assay. To be noted: 10×EC50, 12-hour exposure then wash off. It is filed as cell-based. The protocol: Asynchronous P. falciparum Dd2 cultures were plated at 1% parasitemia, 4% hematocrit into a 24-well plate, incubated at 37° C. in 5% CO2. Wells were treated with 10×EC50 of compound for 12, 24, or 48 hours before the compound was removed. Every 24 hours thereafter for 4 days total, culture samples were washed in 0.5% BSA and stained with 1×SYBR Green I and 60 μM MitoTracker Deep Red FM for 20 minutes at 37° C. After another wash in 0.5% BSA, samples were resuspended in PBS and analyzed via flow cytometry with a CytoFLEX S™, with 100,000 events recorded per sample. For gating, the following controls were used: uninfected RBCs, untreated culture, DHA-treated culture, and untreated culture without MitoTracker stain. Viable parasite percentage was determined by finding the fraction of SYBR Green/MitoTracker double positive cells from the total events. Analysis was performed with FlowJo software Version 10.
Asynchronous cultures of P. falciparum Dd2 parasites were treated with 10×EC50 of the indicated compound for 12 hours prior to compound wash off. Flow cytometry with SYBR Green I (nuclear dye) and Mitotracker Deep Red FM (mitochondria staining) was done after compound wash-off every 24 hours after for […] (100,000 events/sample) to track parasitemia (data from 3 biological replicates±SEM).
Turning to `C[C@H]1[C@@H](O)O[C@@H]2O[C@@]3(C)CC[C@H]4[C@H](C)CC[C@@H]1[C@@]24OO3` [dihydroartemisinin (DHA), dihydroartemisinin, reference compound], the Killing profile entry is listed as “pronounced irreversible killing”.

The test system of a further experiment is P. falciparum Dd2. Nature of the experiment: 72 h SYBR Green I assay (Dd2 Proliferation Assay). It is filed as cell-based. The note with it: 72 hour SYBR Green I; Table 2; read-out: Dd2 EC50 (nM) ± SD. How it is done:
Several analogs were synthesized based on the structure of TL5-135 for further study. […] For the data in Table 1, compounds were subjected to in vitro biochemical kinase assays done using recombinant human ephrin type-A receptor 2 (EPHA2) (expressed in insect cells) in a Z′-LYTE® FRET-based kinase assay. P. falciparum Dd2 EC50 was determined using the standard 72 hour SYBR Green I assay (Dd2 Proliferation Assay) as known in the art. […] The structures of compoundsTL5-134, TL5-139, and TL5-145 are shown below.
In vitro biochemical kinase assays were done using recombinant human EPHA2 (expressed in insect cells) in a Z′-LYTE® FRET-based kinase assay. P. falciparum Dd2 EC50 was determined using the standard 72 h SYBR Green I assay.
Asynchronous blood stage P. falciparum Dd2 cultures were plated at 1% parasitemia and 1% hematocrit in a 96-well plate and incubated with serial dilutions of compound for 72 hours at 37° C. in 5% CO2. DMSO concentrations were kept at a sub-lethal percentage (<0.2%). Five micromolar chloroquine was used as a negative parasite growth control. Plates were then frozen at −80° C. and thawed, and 100 μL SYBR Green I-containing lysis buffer (20 mM Tris-HCl, 5 mM EDTA, 0.8% Triton X-100, 0.08% saponin, and 0.0001% SYBR Green I) was added to the wells. After incubation for 45 minutes at room temperature protected from light, fluorescence emission was read with a multimode microplate reader, at 485 nm excitation and 530 nm emission. Results were normalized using untreated and chloroquine-treated controls, and EC50 was determined with CDD Vault.
To establish the utility of kinase inhibitor compounds synthesized in the Gray laboratory as a source of novel antimalarial activities, the libraries (containing 1,100 compounds) were screened using the well-established SYBR Green I-based fluorescence assay as known in the art. This screen yielded 34 compounds with EC50<500 nM in the CQ^R Dd2 strain. These hits were subjected to counter-screening against human HepG2 cells using CellTiter 96® AQueous (Promega™) MTS-based cell proliferation assay to identify asexual and liver stage antiplasmodial hits.
P. falciparum Dd2 EC50 was determined using SYBR Green I assay. For the selectivity index ([…]) cytotoxicity was determined using CellTiter 96® AQueous MTS. The liver stage assay was performed using P. berghei luciferase expressing parasites. All assays were performed with technical quadruplicates and 3 biological replicates. Assays have a Z′ factor >0.7.
For `CCN1CCN(Cc2ccc(NC(=O)c3cc(Cl)cc(NC(=O)c4cncc(-c5ccco5)c4)c3)cc2C(F)(F)F)CC1` [LSW-03-006], the EC50 (usually the concentration giving half of the maximal effect) was 97.2 ± 23.3 nM.
Still for that read-out and setting: in the case of `CCN1CCN(Cc2ccc(NC(=O)c3cc(Cl)cc(NC(=O)c4cncc(C)c4)c3)cc2C(F)(F)F)CC1` [LSW-03-007] it was 164 ± 14.7 nM; in that of `CCN1CCN(Cc2ccc(NC(=O)c3cc(Cl)cc(NC(=O)c4cccc(-c5cccs5)c4)c3)cc2C(F)(F)F)CC1` [LSW-03-015], 314 ± 17.4 nM; in that of `CCN1CCN(Cc2ccc(NC(=O)c3cc(Cl)cc(NC(=O)c4cncc(-c5cccs5)c4)c3)cc2)CC1` [LSW-03-030], 99.6 ± 8.6 nM.
`O=C(Nc1cccc(C(F)(F)F)c1)c1cc(Cl)cc(NC(=O)c2cncc(-c3cccs3)c2)c1` [LSW-03-033]: the 50% effective concentration (EC50) stood at 422 ± 36 nM.
As for `CCN1CCN(Cc2ccc(NC(=O)c3cc(F)cc(NC(=O)c4cncc(-c5cccs5)c4)c3)cc2C(F)(F)F)CC1` [LSW-03-054], the EC50 is 99.5 ± 12.7 nM.
In the case of `CCN1CCN(Cc2ccc(NC(=O)c3cc(NC(=O)c4cncc(-c5cccs5)c4)cc(C(F)(F)F)c3)cc2C(F)(F)F)CC1` [LSW-03-055], the half-maximal effective concentration (EC50) turned out to be 86.6 ± 2.92 nM.
Consider `CCN1CCN(Cc2ccc(NC(=O)c3cc(NC(=O)c4cncc(-c5cccs5)c4)cc(Cl)c3F)cc2C(F)(F)F)CC1` [LSW-03-059], for which the EC50 turned out to be 104 ± 8.67 nM.
As for `CCN1CCN(Cc2ccc(NC(=O)c3cc(NC(=O)c4cncc(-c5cccs5)c4)ccc3F)cc2C(F)(F)F)CC1` [LSW-03-067], the EC50 was 867 ± 68.3 nM.
The same measure, in the same setting: the value for `CCN1CCN(Cc2ccc(NC(=O)c3cc(Br)cc(NC(=O)c4cncc(-c5cccs5)c4)c3)cc2C(F)(F)F)CC1` [LSW-03-071] was 108 ± 9.08 nM.
For the compound `CCN1CCN(Cc2ccc(NC(=O)c3cc(Cl)cc(NC(=O)c4cncnc4)c3)cc2C(F)(F)F)CC1` [LSW-03-072], the 50% effective concentration (EC50) was determined as 330 ± 27.4 nM.
For `CCN1CCN(Cc2ccc(NC(=O)c3cc(Cl)cc(NC(=O)c4cncc(-c5ccc(C#N)cc5)c4)c3)cc2C(F)(F)F)CC1` [LSW-03-077], the EC50 is 43.8 ± 7.9 nM.
Regarding `O=C(Nc1ccnc(N2CCOCC2)c1)c1cc(Cl)cc(NC(=O)c2cncc(-c3cccs3)c2)c1` [LSW-03-081], the EC50 came to 732 ± 124 nM.

The experiment is the same for the next values; noted with them: Plasmodium falciparum, DD2, 72 h, read-out: Antiplasmodial Dd2 EC50 (nM) ± SD.
For the compound `CCN1CCN(Cc2ccc(NC(=O)c3cc(NC(=O)c4cncc(-c5cccs5)c4)cc(OC)c3)cc2C(F)(F)F)CC1` [TL5-134], the half-maximal effective concentration (EC50) was determined as 341 nM.
With `CCN1CCN(Cc2ccc(NC(=O)c3cncc(NC(=O)c4cncc(-c5cccs5)c4)c3)cc2C(F)(F)F)CC1` [TL5-139], the EC50 came out at 191 nM.
On to `CCN1CCN(Cc2ccc(NC(=O)c3ccnc(NC(=O)c4cncc(-c5cccs5)c4)c3)cc2C(F)(F)F)CC1` [TL5-145], for which the EC50 was found to be 391 nM.

Still in this experiment, the particulars now being: Plasmodium falciparum, DD2; 72 hour SYBR Green I; Table 2; read-out: Dd2 EC50 (nM) ± SD.
As for `CCN1CCN(Cc2ccc(NC(=O)c3cc(Cl)cc(NC(=O)c4cccnc4)c3)cc2C(F)(F)F)CC1` [LSW-03-008], the EC50 stood at 407 ± 56 nM.
Still for that read-out and setting: in the case of `CCN1CCN(Cc2ccc(NC(=O)c3cc(Cl)cc(NCc4cncc(-c5cccs5)c4)c3)cc2C(F)(F)F)CC1` [LSW-03-014] it was 315 ± 18.7 nM; in that of `CCN1CCN(Cc2ccc(NC(=O)c3cc(Cl)cc(NC(=O)N4CCN(C)CC4)c3)cc2C(F)(F)F)CC1` [LSW-03-080], 2120 nM.

The values are drawn from patent publication US20250195508A1, “COMPOUNDS AND COMPOSITIONS FOR ANITMALARIAL THERAPEUTIC AND PROPHYLACTIC USE” (UNIVERSITY OF CENTRAL FLORIDA RESEARCH FOUNDATION, INC., priority 2022, published 2025).
